# Measured values taken from patent US20240150366A1, “4-AMINOQUINAZOLINE COMPOUND” (Astellas Pharma Inc., priority 2021, published 2024).
# pIC50: −log10 of the molar value. Read-outs that look alike come from different tables or passages of the source.
# Assays:
# [1] = test system: KRAS G12D mutant-positive pancreatic cancer line AsPC-1; assay: Non-anchorage-dependent cell growth inhibitory activity in AsPC-1 (spheroid 3D culture); format: cell-based; conditions: Homo sapiens, ASPC1, 144 h, read-out: IC50, non-anchorage-dependent cell growth inhibition
# Procedure: The non-anchorage-dependent cell growth inhibitory activities of subject compounds were evaluated by spheroid 3D cell culture.
# AsPC-1 cells were seeded at 36 μL/well on a low-cell-adhesive round bottom 384-well plate (Prime Surface: from Sumitomo Bakelite) to give 5×10^2 cells per well. The cell culture was performed under the same conditions as in the Test Example 2.
# The next day, the subject compounds (6 points having final concentrations in the range of 10 μM to 3.0 nM) and DMSO, which was the solvent for the subject compounds, as a negative control were diluted 100-fold with a fresh medium and were each added at 4 μL per well. After culturing in the presence of 5% CO2 at 37° C. for six days, CellTiter Glo 2.0 (from Promega) was added at 20 μL per well. After stirring with a plate mixer (from FINEPCR) at normal temperature for an hour, the luminescent signals were measured with ARVO X3 (from PerkinElmer).
# With the signaling value in treatment with DMSO taken as 0% inhibition and with the signaling value in the medium alone without cells taken as 100% inhibition, the 50% inhibition values (IC50) were calculated by Sigmoid-Emax model nonlinear regression analysis.
# [2] = test system: ERK phosphorylation (Thr202/Tyr204) in KRAS G12D mutant-positive pancreatic cancer line AsPC-1; assay: ERK phosphorylation inhibitory activity in AsPC-1 (cell ELISA); format: cell-based; conditions: Homo sapiens, read-out: IC50, ERK phosphorylation inhibition
# Procedure: The ERK phosphorylation inhibitory activities of subject compounds were evaluated by measuring phosphorylation of the 202th threonine (Thr202) and the 204th tyrosine (Tyr204) of ERK located downstream of the KRAS signal by cell ELISA.
# AsPC-1 cells (ATCC, CRL-1682) were seeded at 36 μL/well on a 384-well plate (from Greiner bio-one) to give 2.0×10^4 cells per well. As for the cell culture conditions, RPMI-1640 medium (from Sigma-Aldrich) containing 10% fetal bovine serum (from GE Life Sciences) was used in the presence of 5% CO2 at 37° C.
# The next day, the subject compounds (6 points having final concentrations in the range of 10 μM to 0.3 nM), trametinib (MEK inhibitor) of a final concentration of 1 μM as a positive control and DMSO, which was the solvent for the subject compounds, as a negative control were diluted 100-fold with a fresh medium and were each added at 4 μL per well, followed by culturing for 2 hours. After culturing, a 30% glyoxal solution (40% glyoxal [from Wako] was diluted with Phosphate Buffered Saline [PBS; from Wako) was quickly added at 30 μL per well, and the plate was allowed to stand for an hour at room temperature to thus immobilize the cells. Then, the plate was centrifuged (110× g, seven seconds, hereinafter centrifugation was performed under the same conditions unless otherwise specified) to remove the supernatant, and 0.1% Triton X-100 (from Amersham Biosciences)—containing PBS was added at 20 μL per well. After allowing the plate to stand for 10 minutes at room temperature, the supernatant was removed by centrifugation, and the same operation was further repeated. Next, 0.5% sodium dodecyl sulfate (SDS; from Invitrogen)-containing PBS was added at 20 μL per well. The plate was allowed to stand at room temperature for 30 minutes and was then centrifuged to remove the supernatant. Subsequently, a blocking solution (Intercept Blocking Buffer; from LI-COR Biosciences) was added at 20 μL per well, and the plate was allowed to stand for an hour at room temperature. The supernatant was removed by centrifugation, and an ERK (Thr202/Tyr204) phosphorylation antibody (Phospho-p44/42 MAPK (Erk 1/2) (Thr202/Tyr204) (D13.14.4E) XP Rabbit mAb; from Cell Signaling Technology) diluted 2,500-fold with the blocking solution was added at 10 μL per well as a primary antibody. The plate was allowed to stand at 4° C. overnight.
# The next day, the plate was centrifuged to remove the supernatant, and 0.05% Tween-20-containing PBS (from Thermo Scientific; 20× PBS Tween-20 was diluted 20-fold with ion exchange water and used) was added at 20 μL per well. The supernatant was removed by centrifugation to thus wash each well. The washing was performed three times in total. After washing, an IRDye 800CW Goat anti-Rabbit IgG (from LI-COR Biosciences) diluted 1,000-fold with the blocking solution was added at 10 μL per well as a secondary antibody, and the plate was allowed to stand for an hour at room temperature. The plate was centrifuged to remove the supernatant, and each well was washed three times with 0.05% Tween-20-containing PBS in the same manner as after the primary antibody reaction. Centrifugation after the third washing was performed at 171×g for 17 seconds. After removing the supernatant, the plate was dried as it was with air at room temperature for three hours or more, and the 800-nm fluorescent signals were measured with Aerius (from LI-COR Biosciences).
# With the signaling value at the time of addition of DMSO taken as 0% inhibition and with the signaling value at the time of addition of […] trametinib taken as 100% inhibition, the 50% inhibition values (IC50) were calculated by Sigmoid-Emax model nonlinear regression analysis.
# [3] = biological target: KRAS G12D/SOS/c-Raf complex (Homo sapiens (Human), UniProt P01116, G12D); assay: KRAS G12D/SOS/c-Raf complex formation inhibitory activity (TR-FRET); format: biochemical; conditions: human recombinant proteins, 1 hour at room temperature, read-out: IC50, KRAS G12D/SOS/c-Raf complex formation inhibition
# KRAS G12D/SOS/c-Raf complex, sequence (P01116 other isoform, or with tags, fused parts or gaps G12D): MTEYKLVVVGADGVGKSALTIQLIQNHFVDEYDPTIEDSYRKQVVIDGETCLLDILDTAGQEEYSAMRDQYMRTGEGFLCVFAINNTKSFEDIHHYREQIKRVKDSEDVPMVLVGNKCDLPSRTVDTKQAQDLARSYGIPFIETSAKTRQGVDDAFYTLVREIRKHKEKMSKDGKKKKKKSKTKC
# Procedure: Using human recombinant KRAS G12D, SOS and c-Raf proteins, the inhibitory activity of subject compounds on the complex formation of the proteins was examined by a time-resolved fluorescence resonance energy transfer (TR-FRET) method.
# Biotinylated AviTag-KRAS G12D (amino acid region of 1-185, GDP) (2.5 μL; 400 nM) and subject compounds dissolved in an assay buffer (50 mM HEPES, 150 mM NaCl, 5 mM MgCl2, 0.05% Tween 20, pH 7.0) were added to a 384-well plate (from Corning) in a liquid volume of 2.5 μL at 40,000 nM to 40 nM. Son of Sevenless (SOS) (amino acid region of 564-1049, 2.5 μL; 1.3 μM) and c-Raf (amino acid region of 51-131) GST (2.5 μL; 130 nM) containing GTP (from Sigma-Aldrich; 2 μM) were added to the plate, and the plate was allowed to stand for 1 hour at room temperature. Then, a mixture liquid (10 μL) of LANCE Ulight-anti-GST (from PerkinElmer; 120 nM) and LANCE Eu-W1024 labeled Streptoavidin (from PerkinElmer; 100 ng/mL) was added, and the 620-nm and 665-nm fluorescence intensities were measured using EnVision 2104 (from PerkinElmer) under the conditions of an excitation wavelength of 337 nm. After standardizing the values with the fluorescence intensity at a reference wavelength of 620 nm, the 50% inhibitory concentrations (IC50) were calculated by Sigmoid-Emax model nonlinear regression analysis with the signaling value in treatment with the solvent taken as 0% inhibition and with the signaling value without the addition of GTP taken as 100% inhibition.
SMILES,pIC50 [1],"pIC50 ([2]; ASPC1, 2 h)",pIC50 [3],"pIC50 ([1]; AsPC-1 spheroid 3D culture, six days, CellTiter Glo 2.0)","pIC50 ([2]; ASPC1, AsPC-1 cells, 2 hours culture, cell ELISA)"
"Cc1c(F)cc2[nH]ncc2c1-c1c(C2CC2)cc2c(N3C[C@@H]4C[C@H]3CN4)nc(OC3CCOCC3)nc2c1OCc1ccc(Cc2nnn(C)n2)cc1 [Example 16, 6-cyclopropyl-4-[(1S,4S)-2,5-diazabicyclo[2.2.1]heptan-2-yl]-7-(6-fluoro-5-methyl-1H-indazol-4-yl)-8-({4-[(2-methyl-2H-tetrazol-5-yl)methyl]phenyl}methoxy)-2-[(oxan-4-yl)oxy]quinazoline]",6.67,7.03,6.65,–,–
"Cc1c(F)cc2[nH]ncc2c1-c1c(C2CC2)cc2c(N3C[C@@H]4C[C@H]3CN4)nc(OC3CCOCC3)nc2c1OCc1ccc(Cc2ncn(C3COC3)n2)cc1 [Example 3, 6-cyclopropyl-4-[(1S,4S)-2,5-diazabicyclo[2.2.1]heptan-2-yl]-7-(6-fluoro-5-methyl-1H-indazol-4-yl)-2-[(oxan-4-yl)oxy]-8-[(4-{[1-(oxetan-3-yl)-1H-1,2,4-triazol-3-yl]methyl}phenyl)methoxy]quinazoline]",–,–,7.12,6.89,7.26
"Cc1cc(C)n2cc(Cc3ccc(COc4c(-c5c(C)c(F)cc6[nH]ncc56)c(C5CC5)cc5c(N6C[C@@H]7C[C@H]6CN7)nc(OC6CCOCC6)nc45)cc3)nc2n1 [Example 9, 6-cyclopropyl-4-[(1S,4S)-2,5-diazabicyclo[2.2.1]heptan-2-yl]-8-({4-[(5,7-dimethylimidazo[1,2-a]pyrimidin-2-yl)methyl]phenyl}methoxy)-7-(6-fluoro-5-methyl-1H-indazol-4-yl)-2-[(oxan-4-yl)oxy]quinazoline]",7.08,7.36,7.36,–,–
"Cc1c(F)cc2[nH]ncc2c1-c1c(C2CC2)cc2c(N3C[C@@H]4C[C@H]3CN4)nc(O[C@@H]3CCCc4cnccc43)nc2c1OCc1ccc(Cn2c(=O)n(C)c3ncccc32)cc1 [Example 8, 1-[(4-{[(6-cyclopropyl-4-[(1S,4S)-2,5-diazabicyclo[2.2.1]heptan-2-yl]-7-(6-fluoro-5-methyl-1H-indazol-4-yl)-2-{[(5R)-5,6,7,8-tetrahydroisoquinolin-5-yl]oxy}quinazolin-8-yl)oxy]methyl}phenyl)methyl]-3-methyl-1,3-dihydro-2H-imidazo[4,5-b]pyridin-2-one]",7.14,7.52,7.40,–,–
